We go through 44 molecules from US8841456B2, “1,5-naphthyridine derivative or salt thereof” (FUJIFILM Corporation, priority 2011, dated 2014).

Where two headings read alike, the source gives them in different places.

Experiment [1] has as its target T1, glutathione S-transferase (GST)-fusion human ERK2 protein (Homo sapiens, UniProt P28482).
T1 construct: purchased Carna Biosciences, Inc; host or cells: E. coli expression system
Briefly: ERK2 enzyme assay (LabChip mobility shift). The settings on record: 2 nM ERK2, 4.25 μM FL-Peptide 8, 43 μM ATP. The format is biochemical. As for the experimental part: Evaluation of the ERK2 inhibitory activity of the compound of the present invention was carried out according to the method as described below.
For the ERK2 enzyme assay, a glutathione S-transferase (GST)-fusion human ERK2 protein (Carna Biosciences, Inc.) produced using an E. coli expression system was used.
12 μL of the reaction solution (2 nM ERK2, 100 mM Hepes, 10 mM MgCl2, 1.5 mM DTT, 0.003% Brij35, pH 7.5) including the ERK2 protein and a test compound at a predetermined concentration was incubatedat room temperature for 15 minutes. Thereafter, 3 μL of a mixed solution of FL-Peptide 8 (5-FAM-IPTSPITTTYFFFKKK-COOH) (Caliper Lifescience) which was a substrate and ATP(SIGMA-ALDLICH) were added thereto to a final concentration of 4.25 μM and 43 μM, respectively. The reaction solution was further incubated at 25° C. for 120 minutes to carry out an enzyme reaction.
The enzyme reaction was stopped by adding 27 μL of a reaction-stopping solution (100 mM HEPES, 11.2 mM EDTA, 5.6% Brij35, pH 7.5) including a 0.5% Coating reagent 8 (PerkinElmer, Inc.) after the reaction. Thereafter, non-phosphorylated peptides and phosphorylated peptides were separated using LabChip Ez Reader (Caliper LifeScience, Inc.) to quantify the proportion of phosphorylated peptides.
(§1) The inhibitory activity of the compounds was evaluated using an IC50 (50% inhibitory concentration). The IC50 was calculated using XLfit (IDBS).

In the next experiment the target is T2, human PI3Kα protein (Homo sapiens, UniProt P42336).
T2 construct: purchased Carna Biosciences, Inc; host or cells: Baculovirus expression system
As to the kind of experiment: PI3Kα enzyme assay (ADP-Glo kinase assay). The format is biochemical. The settings on record: 3 nM PI3Kα, 50 μM PIP2, 100 μM ATP. The method, then: Evaluation of the PI3Kα inhibitory activity of the compound of the present invention was carried out according to the method as described below.
For the PI3Kα enzyme assay, biotinylated product of a human PI3Kα protein produced using a Baculovirus expression system (Carna Biosciences, Inc.) was used. Further, for the detection of the enzyme activity, an ADP-Glo kinase assay (PROMEGA Corporation) was used.
10 μL of a reaction solution (3 nM PI3Kα, 40 mM Tris-HCl, 20 mM MgCl2, 0.1% BSA, pH 7.5) including the human PI3Kα protein and a test compound at a predetermined concentration was incubated at room temperature for 15 minutes. Thereafter, 5 μL of a mixed solution of L-α-Phosphatidylinositol 4,5-diphosphate (PIP2) (SIGMA-ALDLICH) which was a substrate and ATP(SIGMA-ALDLICH) was added thereto to a final concentration of 50 μM and 100 μM, respectively, and the reaction solution was further incubated at 25° C. for 60 minutes to carry out an enzyme reaction.
After the reaction, 15 μL of an ADP-Glo reagent (PROMEGA Corporation) was added and the resulting liquid was incubated at room temperature for 60 minutes, whereby the enzyme reaction was stopped. Thereafter, after further adding 30 μL of a Kinase Detection Reagent (PROMEGA Corporation) and standing the resulting solution at room temperature for 40 minutes, ADP produced by the enzyme reaction was quantified by luminescence intensity.
For the measurement of luminescence intensity, EnVision (PerkinElmer, Inc.) was used.
as §1
A general note: ADP-Glo first removes unused ATP, then detects ADP through luciferase.

The mark [2] stands for this setting: IC50 class, read-out: ERK2 Inhibitory Activity.
[3] abbreviates: IC50 class, read-out: PI3Kα Inhibitory Activity.

T2 sequence (P42336 whole entry): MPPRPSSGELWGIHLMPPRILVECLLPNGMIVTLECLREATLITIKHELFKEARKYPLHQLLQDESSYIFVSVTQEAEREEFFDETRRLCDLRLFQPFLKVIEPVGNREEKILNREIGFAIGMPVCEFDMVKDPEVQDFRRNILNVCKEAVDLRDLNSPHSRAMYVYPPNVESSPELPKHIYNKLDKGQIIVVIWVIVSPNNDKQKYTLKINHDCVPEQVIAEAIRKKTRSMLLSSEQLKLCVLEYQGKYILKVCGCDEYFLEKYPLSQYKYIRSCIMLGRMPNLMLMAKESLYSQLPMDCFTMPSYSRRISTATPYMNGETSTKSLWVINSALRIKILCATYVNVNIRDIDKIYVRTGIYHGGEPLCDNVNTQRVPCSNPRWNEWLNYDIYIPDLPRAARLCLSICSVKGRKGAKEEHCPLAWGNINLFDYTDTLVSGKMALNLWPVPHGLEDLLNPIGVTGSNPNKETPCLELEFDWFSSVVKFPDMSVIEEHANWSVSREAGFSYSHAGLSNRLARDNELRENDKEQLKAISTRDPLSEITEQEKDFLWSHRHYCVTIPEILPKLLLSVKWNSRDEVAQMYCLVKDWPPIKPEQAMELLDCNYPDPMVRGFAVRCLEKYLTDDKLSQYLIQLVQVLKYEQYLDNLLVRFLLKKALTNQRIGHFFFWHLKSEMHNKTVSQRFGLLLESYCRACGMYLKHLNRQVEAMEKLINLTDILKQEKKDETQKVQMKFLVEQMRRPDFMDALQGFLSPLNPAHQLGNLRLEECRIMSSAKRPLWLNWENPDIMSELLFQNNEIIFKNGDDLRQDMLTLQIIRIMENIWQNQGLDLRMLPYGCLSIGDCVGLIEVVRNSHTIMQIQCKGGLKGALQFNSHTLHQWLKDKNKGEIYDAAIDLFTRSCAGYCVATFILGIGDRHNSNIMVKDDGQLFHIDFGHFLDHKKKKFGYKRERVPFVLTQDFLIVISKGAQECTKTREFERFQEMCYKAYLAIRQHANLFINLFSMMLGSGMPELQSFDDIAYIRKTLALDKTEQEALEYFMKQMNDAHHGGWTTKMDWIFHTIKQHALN
T2 sequence (P27986 whole entry partner): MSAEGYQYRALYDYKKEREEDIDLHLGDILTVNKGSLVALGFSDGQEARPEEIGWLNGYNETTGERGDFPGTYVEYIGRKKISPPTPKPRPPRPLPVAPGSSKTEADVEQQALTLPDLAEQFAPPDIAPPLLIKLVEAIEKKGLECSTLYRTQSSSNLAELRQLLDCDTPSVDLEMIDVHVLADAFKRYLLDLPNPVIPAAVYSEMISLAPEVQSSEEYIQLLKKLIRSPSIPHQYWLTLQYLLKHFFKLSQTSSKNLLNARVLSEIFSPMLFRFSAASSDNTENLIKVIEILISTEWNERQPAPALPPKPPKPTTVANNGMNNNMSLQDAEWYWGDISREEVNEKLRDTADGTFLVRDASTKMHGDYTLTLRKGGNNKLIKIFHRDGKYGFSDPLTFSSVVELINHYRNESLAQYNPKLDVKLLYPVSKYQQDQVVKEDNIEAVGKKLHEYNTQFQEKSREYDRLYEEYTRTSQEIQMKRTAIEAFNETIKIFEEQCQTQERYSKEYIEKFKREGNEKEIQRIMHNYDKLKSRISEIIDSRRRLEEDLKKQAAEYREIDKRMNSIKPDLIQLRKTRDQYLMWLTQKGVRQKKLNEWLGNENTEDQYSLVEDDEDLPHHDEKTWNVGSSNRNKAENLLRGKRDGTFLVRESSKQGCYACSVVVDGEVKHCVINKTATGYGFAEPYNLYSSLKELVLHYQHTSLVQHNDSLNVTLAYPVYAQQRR
T1 sequence (P28482 whole entry, the tested form may be a part): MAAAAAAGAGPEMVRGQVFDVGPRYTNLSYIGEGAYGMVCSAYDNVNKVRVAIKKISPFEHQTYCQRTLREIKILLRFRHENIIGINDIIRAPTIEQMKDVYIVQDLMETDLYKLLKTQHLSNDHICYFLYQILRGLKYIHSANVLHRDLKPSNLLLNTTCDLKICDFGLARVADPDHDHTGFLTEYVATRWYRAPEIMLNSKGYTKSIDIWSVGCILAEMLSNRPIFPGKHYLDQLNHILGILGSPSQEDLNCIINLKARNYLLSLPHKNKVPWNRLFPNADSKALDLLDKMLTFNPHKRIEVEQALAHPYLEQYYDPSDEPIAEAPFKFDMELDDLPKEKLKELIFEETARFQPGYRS

As for `C#Cc1cnc2ccc(NC(=O)NC3CCCC3)nc2c1` [Compound 0017], the IC50 in experiment [1] (setting [2]) fell in the range of 1000 to 10000 nM; on human PI3Kα protein (setting [3]), 100 to 1000 nM.
On to `CN1CCN(CCn2cc(-c3cnc4ccc(NC(=O)NC5CCCC5)nc4c3)cn2)CC1` [Compound 0223], for which the IC50 (in experiment [1] (setting [2]); at human PI3Kα protein (setting [3])) was below 100 nM in each case.
For the molecule `O=C(Nc1ccc2ncc(-c3cn[nH]c3)cc2n1)NC1CCC1` [Compound 0084], the IC50 (in experiment [1] (setting [2]); on human PI3Kα protein (setting [3])) was below 100 nM throughout.
As for `O=C(Nc1ccc2ncc(-c3ccnc(F)c3)cc2n1)NC1CCCC1` [Compound 0039], the IC50 in experiment [1] (setting [2]) is below 100 nM; on human PI3Kα protein (setting [3]), 100 to 1000 nM.
For `CN1CCN(c2cnc3ccc(NC(=O)NC4CCCC4)nc3c2)CC1` [Compound 0027] the same measures were 100 to 1000 nM and 100 to 1000 nM.
For `O=C(NCC1CCCCC1)Nc1ccc2ncc(-c3cn[nH]c3)cc2n1` [Compound 0063], in that order: below 100 nM and 100 to 1000 nM.
For `C[C@@H](NC(=O)Nc1ccc2ncc(-c3cn[nH]c3)cc2n1)c1ccccc1` [Compound 0139] the same measures were below 100 nM and 100 to 1000 nM.
Take `C[C@@H](NC(=O)Nc1ccc2ncc(-c3cn[nH]c3)cc2n1)C1CCCCC1` [Compound 0080]: the IC50 in experiment [1] (read-out: ERK2, IC50) was below 3 nM; in experiment [1] (setting [2]), below 100 nM; at human PI3Kα protein (read-out: PI3Kα, IC50), 60 nM; at human PI3Kα protein (setting [3]), below 100 nM.
In the case of `CC(C)(C)OC(=O)N1CC[C@H](NC(=O)Nc2ccc3ncc(-c4cn[nH]c4)cc3n2)C1` [Compound 0071], the IC50 is 100 to 1000 nM in experiment [1] (setting [2]) and below 100 nM on human PI3Kα protein (setting [3]).
`O=C(Nc1ccc2ncc(-c3cn[nH]c3)cc2n1)NN1CCCC1` [Compound 0204]: the IC50 (in experiment [1] (setting [2]); at human PI3Kα protein (setting [3])) was 100 to 1000 nM in each case.
On to `CN1CCC(n2cc(-c3cnc4ccc(NC(=O)NC5CCCC5)nc4c3)cn2)CC1` [Compound 0228], for which the IC50 (in experiment [1] (setting [2]); on human PI3Kα protein (setting [3])) was below 100 nM each time.
`CC(C)(C)NC(=O)Nc1ccc2ncc(-c3cn[nH]c3)cc2n1` [Compound 0059]: the IC50 (in experiment [1] (setting [2]); at human PI3Kα protein (setting [3])) was below 100 nM in each case.
Turning to `Cn1cncc1-c1cnc2ccc(NC(=O)NC3CCCC3)nc2c1` [Compound 0238], the IC50 is below 100 nM in experiment [1] (setting [2]) and 100 to 1000 nM at human PI3Kα protein (setting [3]).
For the molecule `CC1(NC(=O)Nc2ccc3ncc(-c4cnn(C5CCNCC5)c4)cc3n2)CCCC1` [Compound 0254], the IC50 in experiment [1] (setting [2]) is 100 to 1000 nM; at human PI3Kα protein (setting [3]), below 100 nM.
Consider `O=C(Nc1ccc2ncc(-c3ccc(F)cc3)cc2n1)NC1CCCC1` [Compound 0020], for which the IC50 is below 100 nM in experiment [1] (setting [2]) and 100 to 1000 nM on human PI3Kα protein (setting [3]).
`COc1ccccc1CCCCNC(=O)Nc1ccc2ncc(-c3cn[nH]c3)cc2n1` [Compound 0168]: the IC50 (in experiment [1] (setting [2]); at human PI3Kα protein (setting [3])) was below 100 nM throughout.
In the case of `CCN1CCN(CCCn2cc(-c3cnc4ccc(NC(=O)NC5CCCC5)nc4c3)cn2)CC1` [Compound 0233], the IC50 (in experiment [1] (setting [2]); on human PI3Kα protein (setting [3])) was below 100 nM throughout.
Take `COCCNC(=O)Nc1ccc2ncc(-c3cn[nH]c3)cc2n1` [Compound 0098]: the IC50 was below 100 nM in experiment [1] (setting [2]) and 100 to 1000 nM at human PI3Kα protein (setting [3]).
Regarding `O=C1CN(c2cnc3ccc(NC(=O)NC4CCCC4)nc3c2)CCN1` [Compound 0142], the IC50 is 100 to 1000 nM in experiment [1] (setting [2]) and below 100 nM at human PI3Kα protein (setting [3]).
For `O=C(Nc1ccc2ncc(-c3cn[nH]c3)cc2n1)N[C@H]1CCC[C@@H]1OCc1ccccc1` [Compound 0159] the same measures were 100 to 1000 nM and below 100 nM.
On to `C[C@@H](NC(=O)Nc1ccc2ncc(-c3cnn(CCCN4CCOCC4)c3)cc2n1)C1CCCCC1` [Compound 0181], for which the IC50 (in experiment [1] (setting [2]); at human PI3Kα protein (setting [3])) was below 100 nM in each case.
Turning to `O=C(Nc1ccc2ncc(-c3c[nH]nc3C(F)(F)F)cc2n1)NC1CCCC1` [Compound 0124], the IC50 (in experiment [1] (setting [2]); on human PI3Kα protein (setting [3])) was below 100 nM in each case.
Regarding `CCOC(=O)CNC(=O)Nc1ccc2ncc(-c3cn[nH]c3)cc2n1` [Compound 0062], the IC50 in experiment [1] (setting [2]) was 100 to 1000 nM; on human PI3Kα protein (setting [3]), 1000 to 10000 nM.
For `CN1CCN(CCCn2cc(-c3cnc4ccc(NC(=O)NC5CCCC5)nc4c3)cn2)CC1` [Compound 0232], in that order: below 100 nM and below 100 nM.
On to `O=C(Nc1ccc2ncc(-c3cc(O)no3)cc2n1)NC1CCCC1` [Compound 0128], for which the IC50 in experiment [1] (setting [2]) lay within 1000 to 10000 nM; at human PI3Kα protein (setting [3]), 100 to 1000 nM.
Regarding `Cc1n[nH]cc1-c1cnc2ccc(NC(=O)NC3CCCC3)nc2c1` [Compound 0043], the IC50 in experiment [1] (read-out: ERK2, IC50) was 7 nM; in experiment [1] (setting [2]) it was below 100 nM; on human PI3Kα protein (read-out: PI3Kα, IC50), 11 nM; on human PI3Kα protein (setting [3]) it was below 100 nM.
For the molecule `CC(C)[C@H](C)NC(=O)Nc1ccc2ncc(-c3cn[nH]c3)cc2n1` [Compound 0083], the IC50 (in experiment [1] (setting [2]); on human PI3Kα protein (setting [3])) was below 100 nM throughout.
On to `CN(C)CCOc1cc(-c2cnc3ccc(NC(=O)NC4CCCC4)nc3c2)ccc1O` [Compound 0016], for which the IC50 (in experiment [1] (setting [2]); on human PI3Kα protein (setting [3])) was below 100 nM in each case.
On to `C[C@@H]1CN(c2cnc3ccc(NC(=O)NC4CCCC4)nc3c2)C[C@H](C)O1` [Compound 0085], for which the IC50 in experiment [1] (setting [2]) is 100 to 1000 nM; on human PI3Kα protein (setting [3]), below 100 nM.
As to `O=C(Nc1ccc2ncc(-c3cnn(CCCN4CCNCC4)c3)cc2n1)NC1CCCC1` [Compound 0212], the IC50 (in experiment [1] (setting [2]); on human PI3Kα protein (setting [3])) was below 100 nM in each case.
Regarding `CN(C)CCCn1cc(-c2cnc3ccc(NC(=O)NC4(C)CCCC4)nc3c2)cn1` [Compound 0258], the IC50 in experiment [1] (setting [2]) is 100 to 1000 nM; at human PI3Kα protein (setting [3]) it was below 100 nM.
Take `CC(C)OCCNC(=O)Nc1ccc2ncc(-c3cn[nH]c3)cc2n1` [Compound 0099]: the IC50 in experiment [1] (setting [2]) is below 100 nM; at human PI3Kα protein (setting [3]) it was 100 to 1000 nM.
For `O=C(NCCCCc1ccccc1)Nc1ccc2ncc(-c3cnn(CCCN4CCOCC4)c3)cc2n1` [Compound 0203] the same measures were below 100 nM and below 100 nM.
Take `CN1CC(n2cc(-c3cnc4ccc(NC(=O)NC5CCCC5)nc4c3)cn2)C1` [Compound 0145]: the IC50 in experiment [1] (setting [2]) is 100 to 1000 nM; on human PI3Kα protein (setting [3]), below 100 nM.
As to `O=C(NCCCCc1ccc(Cl)cc1)Nc1ccc2ncc(-c3cn[nH]c3)cc2n1` [Compound 0167], the IC50 in experiment [1] (setting [2]) was below 100 nM; on human PI3Kα protein (setting [3]) it was 100 to 1000 nM.
For `O=C(Nc1ccc2ncc(-c3cn[nH]c3)cc2n1)N[C@@H]1CCNC1` [Compound 0073], in that order: below 100 nM and 1000 to 10000 nM.
`O=C(Nc1ccc2ncc(Nc3cnccn3)cc2n1)NC1CCCC1` [Compound 0140]: the IC50 in experiment [1] (setting [2]) was 100 to 1000 nM; at human PI3Kα protein (setting [3]) it was below 100 nM.
For `O=C(Nc1ccc2ncccc2n1)NC1CCCC1` [Compound 0116], in that order: 1000 to 10000 nM and 100 to 1000 nM.
For `COc1cccc(Nc2cnc3ccc(NC(=O)NC4CCCC4)nc3c2)c1` [Compound 0029], in that order: above 10000 nM and below 100 nM.
Consider `O=C(NCc1ccccn1)Nc1ccc2ncc(-c3cn[nH]c3)cc2n1` [Compound 0101], for which the results for the IC50 (in experiment [1] (setting [2]); at human PI3Kα protein (setting [3])) were below 100 nM and 1000 to 10000 nM, respectively.
Take `COc1ccc(Nc2cnc3ccc(NC(=O)NC4CCCC4)nc3c2)cc1` [Compound 0028]: the IC50 in experiment [1] (setting [2]) is above 10000 nM; on human PI3Kα protein (setting [3]) it was below 100 nM.
For `O=C(Nc1ccc2ncc(-c3nn[nH]n3)cc2n1)NC1CCCC1` [Compound 0131] the same measures were 100 to 1000 nM and below 100 nM.
In the case of `CN(C)CCCNC(=O)Nc1ccc2ncc(-c3cn[nH]c3)cc2n1` [Compound 0106], the IC50 lay in the range of 100 to 1000 nM in experiment [1] (setting [2]) and 1000 to 10000 nM on human PI3Kα protein (setting [3]).
For `CC(CCc1ccccc1)NC(=O)Nc1ccc2ncc(-c3cn[nH]c3)cc2n1` (centres unmarked) [Compound 0088], in that order: below 100 nM and below 100 nM.
